Data on one compound can be found in US5254727A, “Acyclic tricarboxylic acid compounds” (Merck & Co., Inc., priority 1992, dated 1993).

The target of assay [1] is T1, squalene synthetase, rat liver microsomes (Rattus norvegicus, UniProt Q02769).
T1 construct: from tissue; host or cells: liver microsomes of male Charles River CD rats fed 0.1% lovastatin
T1 sequence (Q02769 1-416): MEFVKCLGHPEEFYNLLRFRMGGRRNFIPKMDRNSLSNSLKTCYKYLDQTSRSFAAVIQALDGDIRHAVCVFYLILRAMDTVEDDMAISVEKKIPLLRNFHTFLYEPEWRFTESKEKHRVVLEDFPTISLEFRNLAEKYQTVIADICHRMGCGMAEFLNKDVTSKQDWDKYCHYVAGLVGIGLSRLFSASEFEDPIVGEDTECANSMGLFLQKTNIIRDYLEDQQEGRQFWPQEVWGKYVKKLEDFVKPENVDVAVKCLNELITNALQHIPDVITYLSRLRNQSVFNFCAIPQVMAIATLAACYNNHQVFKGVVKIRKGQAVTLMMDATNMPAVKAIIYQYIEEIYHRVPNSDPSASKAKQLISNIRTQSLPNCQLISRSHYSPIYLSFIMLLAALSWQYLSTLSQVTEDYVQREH
As to the kind of experiment: Squalene synthetase assay using rat liver enzyme. To be noted: rat liver microsomal enzyme, [4-14C]farnesyl pyrophosphate, 30° C., 20 min. It counts as biochemical. As for the experimental part:
B. SQUALENE SYNTHETASE ASSAY USING RAT LIVER ENZYME
Preparation of Rat Liver Microsomes: Male, Charles River CD rats (120 to 150 g) were fed a diet containing 0.1% lovastatin for 4 days. The livers from these rats were homogenized in 5 volumes (ml/g) of ice cold 50 mM HEPES (4-(2-hydroxyethyl)-1-piperazine-ethanesulfonic acid), 5 mM EDTA(ethylenediaminetetra-acetic acid) pH 7.5 with a Potter-Elvehjem type tissue grinder. The homogenate was centrifuged twice at 20,000×g for 15 minutes at 4° C., discarding the pellet each time. The supernatant was then centrifuged at 100,000×g for 1 hour at 4° C. The resulting microsomal pellet was resuspended in a volume of the above homogenizing buffer equal to one-fifth the volume of the original homogenate. This microsomal preparation has a protein concentration of about 7 mg/ml. The microsomal suspensions were stored in aliquots at -70° C. Squalene synthetase activity in these aliquots is stable for at least several months.
Partial Purification of Prenyl Transferase: Prenyl transferase was purified to use in the enzymatic synthesis of radiolabelled farnesyl pyrophosphate [FPP]. Prenyl transferase was assayed by the method of Rilling (Methods in Enzymology 110, 125-129 (1985)) and a unit of activity is defined as the amount of enzyme that will produce 1 μmole of farnesyl pyrophosphate per minute at 30° C. in the standard assay. […]

The target in assay [2] is T2, squalene synthetase from human HEPG2 cells (Homo sapiens, UniProt P37268).
T2 construct: The resulting pellet from the 34,000 rpm centrifugation, containing the squalene synthetase, was resuspended in 5 mL of enzyme suspension buffer; endogenous in cells; host or cells: HepG2 cells (ATCC HB 8065), pellet of the 34,000 rpm centrifugation (microsomal)
T2 sequence (P37268 1-417): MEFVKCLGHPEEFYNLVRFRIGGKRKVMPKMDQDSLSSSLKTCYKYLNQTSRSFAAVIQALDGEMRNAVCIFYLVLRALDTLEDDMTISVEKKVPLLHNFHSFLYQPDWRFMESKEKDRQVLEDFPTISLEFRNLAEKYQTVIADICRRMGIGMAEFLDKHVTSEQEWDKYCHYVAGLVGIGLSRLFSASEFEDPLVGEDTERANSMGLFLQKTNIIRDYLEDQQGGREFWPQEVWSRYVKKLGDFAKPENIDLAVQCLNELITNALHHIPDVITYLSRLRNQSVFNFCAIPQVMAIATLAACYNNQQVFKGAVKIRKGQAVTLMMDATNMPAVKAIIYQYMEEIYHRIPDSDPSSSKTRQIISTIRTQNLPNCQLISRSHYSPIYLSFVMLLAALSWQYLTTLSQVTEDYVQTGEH
As to the kind of experiment: Squalene synthetase assay using HepG2 cell enzyme. Format: biochemical. The following applies: 3 μM 3H-farnesyl pyrophosphate, 30° C., 20 min. As for the experimental part:
A. SQUALENE SYNTHETASE ASSAY USING HEPG2 CELL ENZYME
1. Preparation of Human HepG2 Cell Enzyme
Source: HEPG2 CELL LINE (Liver, hepatoblastoma, Human) ATCC No. HB 8065
Cell Growth and Maintenance: Culture Medium: Minimum essential medium (MEM) with non-essential amino acids, sodium pyruvate, and 10% fetal bovine serum. The medium was changed twice weekly. A confluent monolayer was acheived in 1 week. The growth medium was prepared as listed below.
Subculture Procedure: The medium was removed and washed with PBS (Phosphate-Buffered Saline 15.6 mM, pH 7.0). Fresh trypsin (0.25%)-EDTA (0.02%) with Hank's Balanced Salt solution was added and the flask was allowed to stand for a minute before the trypsin solution was removed. The flask was incubated at 37° C. until cells detached. Fresh medium was added and the cells were dispersed and dispensed into new flasks. Subcultivation ratio: 1:6.
Preparation of Delipidated Serum: Fetal calf serum (100 ml) and CAB-O-Sil (2 grams) were stirred overnight at 4° C. and centrifuged at 16,000 rpm for 5 hrs. […]
Harvest: The medium was removed and the cells were washed with PBS. […] Cells were counted (2.5×10^9 yield from 18 flasks (75 cm^2)), and resuspended in 10 mL of 50 mM HEPES (N-[2-Hydroxyethyl]piperazine-N'-[2-ethane-sulfonic acid]) containing 5 mM MgCl2, 2 mM MnCl2, 10 mM DTT (dithiothreitol), pH 7.5 (enzyme suspension buffer). […]

Broadly, the IC50 is the point on the concentration scale where inhibition reaches its midpoint. Low readings indicate greater potency, high ones weaker potency. In the case of `CC(C/C=C/c1ccccc1)CC(C)CCCCCC(C(=O)O)C(O)(CC(=O)O)C(=O)O` (centres unmarked) [Compound IA], the values for the IC50 in assay [1] and in assay [2] were 767 nM and about 145 nM, respectively.
